This note sets out measurements from article PMC6934184, “Selective DNA-PKcs inhibition extends the therapeutic index of localized radiotherapy and chemotherapy” (The Journal of Clinical Investigation, 2019).

In the assay the target is T1, AMPK (A2/B2/G2) (Homo sapiens, UniProt P54646).
T1 construct: purchased Thermo Fisher Scientific (Life Technologies) SelectScreen
The assay can be described thus: SelectScreen LanthaScreen. The assay is classed as binding. The settings on record: read-out: % displacement. An outline of the steps:
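NU5455 was profiled across the SelectScreen Broad panel of kinase activity and binding assays. Z'LYTE reactions such as CSF1R ran at apparent Km ATP, while the Adapta CAMK1 assay used ATP listed as 10. Values are given as percent.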
(TR-FRET usually uses a lanthanide donor and a delayed reading to cut background.)

T1 sequence (P54646 whole entry): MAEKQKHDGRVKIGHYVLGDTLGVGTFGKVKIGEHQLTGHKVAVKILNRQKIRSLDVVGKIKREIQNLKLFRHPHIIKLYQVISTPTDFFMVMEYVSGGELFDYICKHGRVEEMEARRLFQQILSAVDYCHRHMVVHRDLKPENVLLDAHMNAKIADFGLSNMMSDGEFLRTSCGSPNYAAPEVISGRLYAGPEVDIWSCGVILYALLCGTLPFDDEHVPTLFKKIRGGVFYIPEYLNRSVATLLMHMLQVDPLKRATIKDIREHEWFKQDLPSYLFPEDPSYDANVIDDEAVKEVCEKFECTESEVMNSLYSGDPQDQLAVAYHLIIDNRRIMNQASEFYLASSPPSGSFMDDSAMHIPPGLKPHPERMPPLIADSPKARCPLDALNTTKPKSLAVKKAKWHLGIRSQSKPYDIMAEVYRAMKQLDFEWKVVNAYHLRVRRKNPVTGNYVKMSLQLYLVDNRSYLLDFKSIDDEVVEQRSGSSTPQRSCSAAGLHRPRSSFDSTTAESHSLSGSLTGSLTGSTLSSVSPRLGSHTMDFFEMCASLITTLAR
T1 sequence (O43741 whole entry partner): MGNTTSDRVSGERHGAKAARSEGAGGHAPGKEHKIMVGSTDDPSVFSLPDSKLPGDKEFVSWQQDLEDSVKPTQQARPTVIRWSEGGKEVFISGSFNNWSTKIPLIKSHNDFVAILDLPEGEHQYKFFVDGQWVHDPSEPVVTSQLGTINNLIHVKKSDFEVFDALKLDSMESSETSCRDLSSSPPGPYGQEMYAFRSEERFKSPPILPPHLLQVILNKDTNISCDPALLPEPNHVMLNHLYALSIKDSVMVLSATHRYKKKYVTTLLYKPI
T1 sequence (Q9UGJ0 whole entry partner): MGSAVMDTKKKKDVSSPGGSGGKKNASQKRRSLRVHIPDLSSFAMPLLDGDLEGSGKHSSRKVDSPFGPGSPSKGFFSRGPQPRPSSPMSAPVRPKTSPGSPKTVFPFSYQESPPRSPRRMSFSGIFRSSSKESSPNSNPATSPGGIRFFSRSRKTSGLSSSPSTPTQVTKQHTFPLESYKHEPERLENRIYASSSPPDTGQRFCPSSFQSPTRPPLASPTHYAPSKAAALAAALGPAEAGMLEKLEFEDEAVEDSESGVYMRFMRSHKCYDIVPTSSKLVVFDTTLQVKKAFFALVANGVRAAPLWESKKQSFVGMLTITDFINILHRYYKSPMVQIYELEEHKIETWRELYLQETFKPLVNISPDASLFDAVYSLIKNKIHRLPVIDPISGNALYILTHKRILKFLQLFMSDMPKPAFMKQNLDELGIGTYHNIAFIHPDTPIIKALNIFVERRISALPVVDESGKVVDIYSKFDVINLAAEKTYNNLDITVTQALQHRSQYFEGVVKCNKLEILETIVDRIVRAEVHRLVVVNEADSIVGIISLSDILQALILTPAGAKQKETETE

In the case of `CN(C(=O)CN1CCOCC1)c1ccc2sc3c(-c4cccc5c(=O)cc(N6CC7CCC(C6)O7)oc45)cccc3c2c1` [NU5455], the inhibition at 1 µM was -2.6%.
